# Experimental data: paper PMC6154745 (Oncotarget, 2018)
# Marks after values point to notes of the source that are not given here.
# What was measured:
# Body weight, Study 1 = type: in vivo, Swiss H mice; conditions: after 10 weeks
# Text: Strain H neonatal mice, used in Study 1, were born at the Animal Laboratory of the National Center of Oncology (Sofia, Bulgaria). The mice were housed in Makrolon™ cages on sawdust bedding and maintained on standard rodent chow (Kostinbrod, Bulgaria) and allowed drinking water ad libitum. Swiss ICR (CD-1) mice, either neonatal (Study 2) or two- month old (Study 3), were purchased from Harlan Laboratories (San Pietro al Natisone, Udine, Italy). The mice were housed in Makrolon™ cages on sawdust bedding and maintained on standard rodent chow (Teklad 9607, Harlan Laboratories) and tap water ad libitum. The animal room temperature was 23 ± 2°C, with a relative humidity of 55% and a 12 h day-night cycle. Housing and treatments of mice were in accordance with NIH, European (2010/63 UE Directive), and institutional guidelines. The issuance of the NIH Office of Laboratory Animal Welfare (OLAW) with the University of Genoa bears the identification number A5899-01 and is effective until February 28, 2021. The Institutional Animal Care and Use Committee (IACUC) protocol was approved by the Fox Chase Cancer Center Committee on April 13, 2015.
# In Study 1 and Study 2, feeding of the drug-containing diet started after weanling (about 4 weeks) and continued until the 10th week of life.
# (§1) Treatment-related differences in body weights, in the frequency of MN NCE, and in the levels of pulmonary DNA adducts and 8-oxo-dGuo, all of them expressed as means ± SE within each group of mice, were evaluated for statistical significance by ANOVA followed by Student's t test for unpaired data. miRNA microarray data, after local background subtraction, log transformation, and normalization were analyzed by GeneSpring software (Agilent, Santa Clara, CA), and expression data were median centered by using the GeneSpring normalization option.
# lung DNA [1] = assay: Bulky DNA adducts in lung by 32P postlabeling, Study 1; type: in vivo, Swiss H mice
# Procedure: (§2) Each group was composed of 10 female mice.
# (§3) DNA was extracted from tissue specimens (50 mg) collected individually from the lungs of 40 Swiss H mice used in Study 1 and from lungs, heart and liver of 80 ICR (CD-1) mice used in Study 2, as previously described. Bulky DNA adducts, after butanol enrichment, and 8-hydroxy-2’-deoxyguanosine (8-oxo-dGuo) were measured by ^32P postlabeling as previously described.
# lung DNA [2] = assay: 8-oxo-dGuo (oxidative DNA damage) in lung by 32P postlabeling, Study 1; type: in vivo, Swiss H mice; conditions: for 8-oxo-dGuo: lung
# Procedure: as §2, §3
# [3] = tested on: normochromatic erythrocytes; assay: Systemic genotoxicity: frequency of MN NCE in peripheral blood; type: in vivo, Swiss H mice; parameters: unit not given here
# liver DNA = assay: Bulky DNA adducts by 32P postlabeling, Study 2, liver; type: in vivo, ICR (CD-1) mice; conditions: for Bulky DNA adducts: Liver; for increase of DNA adduct levels over sham-exposed mice: liver
# Procedure: as §2, §3
# lung miRNAs = assay: miRNA expression (microarray), Study 3, lung; type: in vivo, ICR (CD-1) mice
# Procedure: as §2
# (§4) The urine was collected for 8 h and pooled from the mice belonging to each experimental group in Study 3 by using metabolic cages during the day preceding euthanasia of mice. Immediately after sacrifice, a bronchoalveolar lavage (BAL) was performed and used for preparing BALF, and the blood was collected and used for preparing serum. BALF and blood serum were pooled within each experimental group. The organs reported in the general design of the studies were collected, as previously described. Immediately after collection, each organ or fluid was immersed in RNAlater and kept at -80°C for miRNA analysis. Portions of the organs used in Study 1 and Study 2 were stored at -80°C for evaluating DNA damage.
# (§5) For evaluating the expression of pulmonary miRNAs we used the 7th generation miRCURY LNA™ microRNA Array (Exiqon), which contains 3,100 capture probes covering human, mouse and rat miRNAs. In particular, this array covers 1,135 mouse miRNAs, i.e. the 88.6% of the 1,281 mouse miRNAs listed in miRBase 19. Microarray analyses were carried out as previously described.
# as §1
# urinary bladder miRNAs = assay: miRNA expression (microarray), Study 3, urinary bladder; type: in vivo, ICR (CD-1) mice
# Procedure: as §2, §4, §5, §1
# colon miRNAs = assay: miRNA expression (microarray), Study 3, colon; type: in vivo, ICR (CD-1) mice
# Procedure: as §2, §4, §5, §1
# blood serum miRNAs = assay: miRNA expression (microarray), Study 3, blood serum; type: in vivo, ICR (CD-1) mice
# Procedure: as §2, §4, §5, §1
# urine miRNAs = assay: miRNA expression (microarray), Study 3, urine; type: in vivo, ICR (CD-1) mice
# Procedure: as §2, §4, §5, §1
# brain miRNAs = assay: miRNA expression (microarray), Study 3, brain; type: in vivo, ICR (CD-1) mice; conditions: high dose
# Procedure: as §2
# as §4, with “damage. […]” for “damage.”
# as §1
# [4] = mice, 1,000 mg/kg diet; cited from earlier work
# [5] = females, MCS-exposed mice given celecoxib
# [6] = males, MCS-exposed mice given celecoxib
# [7] = low dose (20 mg/kg diet) vs sham
# [8] = urine, low dose (20 mg/kg diet) vs sham
smiles,measurement,setting,value
"Cc1ccc(-c2cc(C(F)(F)F)nn2-c2ccc(S(N)(=O)=O)cc2)cc1 [Celecoxib, 4-[5-(4-methylphenyl)-3-(trifluoromethyl)-1H-pyrazol-1-yl] benzene-1-sulfonamide]",body weight,"Body weight, Study 1; [5]",26.7 ± 0.56 g
same,body weight,"Body weight, Study 1; females",27.8 ± 0.80 g
same,body weight,"Body weight, Study 1; [6]",34.6 ± 1.55 g
same,body weight,"Body weight, Study 1; males",37.2 ± 0.97 g
same,increase of pulmonary DNA adducts vs sham-exposed mice,lung DNA [1]; MCS-exposed mice given celecoxib,8.5 fold
same,increase of pulmonary DNA adducts vs sham-exposed mice,lung DNA [1]; combined genders,3.3 fold
same,Bulky DNA adducts,"lung DNA [1]; lung, F",4.3 ± 0.34^b adducts/10^8 nucleotides
same,Bulky DNA adducts,"lung DNA [1]; lung, M",4.3 ± 0.40^b adducts/10^8 nucleotides
same,Bulky DNA adducts,"lung DNA [1]; lung, M + F",4.3 ± 0.25^b adducts/10^8 nucleotides
same,autoradiographic spots absent in sham-exposed mice,"lung DNA [1]; lung, MCS-free mice",3
same,8-oxo-dGuo,lung DNA [2]; F,2.3 ± 0.28 8-oxo-dGuo/10^5 nucleotides
same,8-oxo-dGuo,lung DNA [2]; M,1.6 ± 0.29 8-oxo-dGuo/10^5 nucleotides
same,8-oxo-dGuo,lung DNA [2]; M + F,1.9 ± 0.22 8-oxo-dGuo/10^5 nucleotides
same,increase of pulmonary 8-oxo-dGuo levels vs sham-exposed mice,"lung DNA [2]; mouse, in vivo",did not affect
same,frequency of MN NCE,"[3]; females, 4 months of age",0.8 ± 0.08
same,frequency of MN NCE,[3]; [5],1.2 ± 0.08
same,frequency of MN NCE,"[3]; males, 4 months of age",1.4 ± 0.12
same,frequency of MN NCE,[3]; [6],2.2 ± 0.15
same,Bulky DNA adducts,liver DNA; F,1.8 ± 0.08^c adducts/10^8 nucleotides
same,Bulky DNA adducts,liver DNA; M,1.6 ± 0.12^a adducts/10^8 nucleotides
same,Bulky DNA adducts,liver DNA; M + F,1.7 ± 0.08^a adducts/10^8 nucleotides
same,increase of DNA adduct levels over sham-exposed mice,"liver DNA; MCS-exposed mice treated with celecoxib, females",1.5 fold
same,increase of DNA adduct levels over sham-exposed mice,"liver DNA; MCS-exposed mice treated with celecoxib, males",1.3 fold
same,increase of DNA adduct levels over sham-exposed mice,"liver DNA; MCS-exposed mice treated with celecoxib, mixed genders",1.4 fold
same,increase of DNA adduct levels over sham-exposed mice,liver DNA; combined genders,1.4 fold
same,increase of DNA adduct levels over sham-exposed mice,liver DNA; females,1.5 fold
same,increase of DNA adduct levels over sham-exposed mice,liver DNA; males,1.3 fold
same,miR-361 upregulation,lung miRNAs,8 fold
same,upregulated/downregulated miRNAs,lung miRNAs; MCS-exposed mice,0/1
same,upregulated/downregulated miRNAs,lung miRNAs; MCS-free mice,14/0
same,number of miRNAs modulated by celecoxib,lung miRNAs; high dose,15
same,number of miRNAs modulated,lung miRNAs; low dose,3
same,miR-296 upregulation,lung miRNAs; [7],2.4 fold
same,miR-551b upregulation,lung miRNAs; [7],2.2 fold
same,miR185 downregulation,"lung miRNAs; low dose (20 mg/kg diet), compared to MCS-exposed mice",2.8 fold
same,miR-30c-2-3p downregulation,urinary bladder miRNAs; MCS-exposed mice,7 fold
same,miR-30e upregulation,urinary bladder miRNAs; MCS-exposed mice,6 fold
same,miR-185-5p downregulation,urinary bladder miRNAs; MCS-exposed mice,14 fold
same,miR-701-3p upregulation,urinary bladder miRNAs; MCS-exposed mice,5 fold
same,miR-802-3p upregulation,urinary bladder miRNAs; MCS-exposed mice,5 fold
same,miR-1964-5p downregulation,urinary bladder miRNAs; MCS-exposed mice,5 fold
same,upregulated/downregulated miRNAs,urinary bladder miRNAs; MCS-exposed mice,8/12
same,miR-30c-2-5p downregulation,urinary bladder miRNAs; MCS-free mice,10 fold
same,miR-30e downregulation,urinary bladder miRNAs; MCS-free mice,8 fold
same,miR-185-5p downregulation,urinary bladder miRNAs; MCS-free mice,20 fold
same,miR-301 downregulation,urinary bladder miRNAs; MCS-free mice,8 fold
same,upregulated/downregulated miRNAs,urinary bladder miRNAs; MCS-free mice,0/10
same,number of miRNAs modulated by celecoxib,urinary bladder miRNAs; high dose,30
same,upregulated/downregulated miRNAs,colon miRNAs; MCS-exposed mice,0/2
same,miR-185-5p downregulation,colon miRNAs; MCS-free mice,8 fold
same,miR-301 downregulation,colon miRNAs; MCS-free mice,6 fold
same,upregulated/downregulated miRNAs,colon miRNAs; MCS-free mice,1/4
same,number of miRNAs modulated by celecoxib,colon miRNAs; high dose,7
same,upregulated/downregulated miRNAs,"blood serum miRNAs; blood serum, MCS-exposed mice",2/3
same,miR-1964-5p downregulation,"blood serum miRNAs; blood serum, MCS-free mice",8 fold
same,upregulated/downregulated miRNAs,"blood serum miRNAs; blood serum, MCS-free mice",2/11
same,number of miRNAs modulated by celecoxib,"blood serum miRNAs; blood serum, high dose",18
same,number of miRNAs modulated,"blood serum miRNAs; blood serum, low dose",2
same,miR30c-5p downregulation,"blood serum miRNAs; blood serum, low dose (20 mg/kg diet) vs sham",2.9 fold
same,miR-185 downregulation,"blood serum miRNAs; blood serum, low dose (20 mg/kg diet), compared to MCS-exposed mice",2.1 fold
same,number of miRNAs modulated,"blood serum miRNAs; blood, high dose",11
same,number of miRNAs modulated,"urine miRNAs; urine, high dose",3
same,number of miRNAs modulated,"urine miRNAs; urine, low dose",2
same,miR-290 downregulation,urine miRNAs; [8],2.4 fold
same,miR-1945b downregulation,urine miRNAs; [8],2.4 fold
same,upregulated/downregulated miRNAs,"urine miRNAs; urines, MCS-free mice",0/3
same,number of miRNAs modulated by celecoxib,"urine miRNAs; urines, high dose",3
same,number of miRNAs modulated by celecoxib,brain miRNAs,0
same,plasma concentration,[4],1600 ng/mL
